From ChEMBL document CHEMBL1681690, “Discovery of TAK-733, a potent and selective MEK allosteric site inhibitor for the treatment of cancer” (Bioorg Med Chem Lett, 2011)
The source made the active and inactive calls. The calls are words filed in the database; no cut-off is given here.

What was measured:
[1] = tested on: A-375; assay: Cytotoxicity against human A375 cells after 72 hrs by MTS assay; conditions: A-375, 72 h
[2] = tested on: COLO 205; assay: Cytotoxicity against human COLO205 cells after 72 hrs by MTS assay; conditions: COLO 205, 72 h
[3] = target: Dual specificity mitogen-activated protein kinase kinase 1 (Homo sapiens, UniProt Q02750)
Sequence of Dual specificity mitogen-activated protein kinase kinase 1 (Q02750 whole entry): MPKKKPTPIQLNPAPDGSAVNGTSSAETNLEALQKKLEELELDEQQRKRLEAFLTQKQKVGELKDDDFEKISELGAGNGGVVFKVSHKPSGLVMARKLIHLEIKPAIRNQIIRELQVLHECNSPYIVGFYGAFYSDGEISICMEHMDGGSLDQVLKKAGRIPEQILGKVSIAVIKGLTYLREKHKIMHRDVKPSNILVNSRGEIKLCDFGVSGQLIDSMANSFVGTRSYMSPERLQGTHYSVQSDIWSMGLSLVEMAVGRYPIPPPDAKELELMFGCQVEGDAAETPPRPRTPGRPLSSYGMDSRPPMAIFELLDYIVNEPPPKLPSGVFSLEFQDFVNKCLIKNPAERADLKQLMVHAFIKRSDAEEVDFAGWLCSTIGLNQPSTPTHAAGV
Description: Inhibition of MEK1 by IMAP assay

[4] = Half life in human liver microsomes; type: ADME, Microsome
[5] = Half life in rat liver microsomes; type: ADME, Microsome
[6] = Clearance in dog at 0.6 mg/kg, iv and 2.3 mg/kg, po; type: ADME, organism-based, Canis lupus familiaris; conditions: in vivo
[7] = Oral bioavailability in monkey at 2 mg/kg; type: ADME, organism-based, Macaca mulatta; conditions: rhesus monkey, in vivo
[8] = Volume of distribution at steady state in rat at 1 mg/kg, iv and 4.2 mg/kg, po; type: ADME, organism-based; conditions: in vivo, read-out: Vdss
[9] = Mean residence time in rat at 1 mg/kg, iv; type: ADME, organism-based; parameters: dose 1 mg/kg, route intravenous; conditions: in vivo
[10] = target: [Pyruvate dehydrogenase (acetyl-transferring)] kinase isozyme 1, mitochondrial (Homo sapiens) (UniProt Q15118); assay: Inhibition of PDK1 up to 10 uM
[11] = Oral bioavailability in mouse at […]; type: ADME, organism-based; conditions: in vivo
[12] = target: Tyrosine-protein kinase SYK (Homo sapiens) (UniProt P43405); assay: Inhibition of Syk up to 10 uM
[13] = target: Cyclin-dependent kinase 2/cyclin A (Homo sapiens) (UniProt P24941+P20248+P78396); assay: Inhibition of CDK2/cyclin A up to 10 uM; type: protein-complex assay
[14] = target: Glycogen synthase kinase-3 beta (Homo sapiens) (UniProt P49841); assay: Inhibition of GSK3-beta up to 10 uM
Sequence of Glycogen synthase kinase-3 beta (Homo sapiens) (P49841 whole entry, looked up): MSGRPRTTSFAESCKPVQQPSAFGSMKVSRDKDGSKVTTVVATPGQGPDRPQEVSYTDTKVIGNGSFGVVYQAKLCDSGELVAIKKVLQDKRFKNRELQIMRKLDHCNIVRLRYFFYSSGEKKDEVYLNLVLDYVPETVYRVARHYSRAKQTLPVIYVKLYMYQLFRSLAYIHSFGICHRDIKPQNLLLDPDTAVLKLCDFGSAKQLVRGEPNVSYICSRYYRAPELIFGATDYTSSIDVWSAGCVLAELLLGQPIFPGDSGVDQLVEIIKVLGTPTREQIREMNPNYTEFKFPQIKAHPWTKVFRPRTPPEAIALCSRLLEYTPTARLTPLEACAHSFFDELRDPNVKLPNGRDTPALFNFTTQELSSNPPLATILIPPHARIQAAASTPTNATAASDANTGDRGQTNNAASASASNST

[15] = Clearance in rat at 1 mg/kg, iv and 4.2 mg/kg, po; type: ADME, organism-based; conditions: in vivo
[16] = Oral bioavailability in dog at 2.3 mg/kg; type: ADME, organism-based, Canis lupus familiaris; conditions: in vivo
[17] = Mean residence time in monkey at 2 mg/kg, po; type: ADME, organism-based, Macaca mulatta; parameters: dose 2 mg/kg, route oral; conditions: rhesus monkey, in vivo
[18] = Clearance in mouse at 1.4 mg/kg, iv and […] mg/kg, po; type: ADME, organism-based; conditions: in vivo
[19] = target: Angiopoietin-1 receptor (Homo sapiens) (UniProt Q02763); assay: Inhibition of Tie2 up to 10 uM
[20] = Volume of distribution at steady state in mouse at 1.4 mg/kg, iv and […], po; type: ADME, organism-based; conditions: in vivo, read-out: Vdss
[21] = Plasma protein binding in human; type: ADME, cell-free; conditions: read-out: PPB (converted)
[22] = Volume of distribution at steady state in monkey at 0.5 mg/kg, iv and 2 mg/kg, po; type: ADME, organism-based, Macaca mulatta; conditions: rhesus monkey, in vivo, read-out: Vdss
[23] = Mean residence time in dog at 2.3 mg/kg, po; type: ADME, organism-based, Canis lupus familiaris; parameters: dose 2.3 mg/kg, route oral; conditions: in vivo
[24] = target: RAC-gamma serine/threonine-protein kinase (Homo sapiens) (UniProt Q9Y243); assay: Inhibition of AKT3 up to 10 uM
Sequence of RAC-gamma serine/threonine-protein kinase (Homo sapiens) (Q9Y243 whole entry): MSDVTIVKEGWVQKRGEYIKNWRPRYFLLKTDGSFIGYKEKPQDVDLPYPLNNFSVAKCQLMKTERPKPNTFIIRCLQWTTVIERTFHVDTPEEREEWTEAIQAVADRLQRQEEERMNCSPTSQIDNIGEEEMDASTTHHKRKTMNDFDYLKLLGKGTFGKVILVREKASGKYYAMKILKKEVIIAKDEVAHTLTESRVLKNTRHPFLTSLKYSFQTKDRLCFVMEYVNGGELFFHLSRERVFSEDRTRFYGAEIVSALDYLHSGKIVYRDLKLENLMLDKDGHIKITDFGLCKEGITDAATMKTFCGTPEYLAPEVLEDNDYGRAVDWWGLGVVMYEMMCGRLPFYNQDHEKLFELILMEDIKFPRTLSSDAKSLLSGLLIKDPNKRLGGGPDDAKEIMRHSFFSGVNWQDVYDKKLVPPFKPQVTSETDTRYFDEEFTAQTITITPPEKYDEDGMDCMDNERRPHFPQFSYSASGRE

[25] = Mean residence time in dog at 0.6 mg/kg, iv; type: ADME, organism-based, Canis lupus familiaris; parameters: dose 0.6 mg/kg, route intravenous; conditions: in vivo
[26] = Plasma protein binding in mouse; type: ADME, cell-free; conditions: read-out: PPB (converted)
[27] = target: Calcium/calmodulin-dependent protein kinase type 1D (Homo sapiens) (UniProt Q8IU85); assay: Inhibition of CamK1delta up to 10 uM
Sequence of Calcium/calmodulin-dependent protein kinase type 1D (Homo sapiens) (Q8IU85 whole entry, looked up): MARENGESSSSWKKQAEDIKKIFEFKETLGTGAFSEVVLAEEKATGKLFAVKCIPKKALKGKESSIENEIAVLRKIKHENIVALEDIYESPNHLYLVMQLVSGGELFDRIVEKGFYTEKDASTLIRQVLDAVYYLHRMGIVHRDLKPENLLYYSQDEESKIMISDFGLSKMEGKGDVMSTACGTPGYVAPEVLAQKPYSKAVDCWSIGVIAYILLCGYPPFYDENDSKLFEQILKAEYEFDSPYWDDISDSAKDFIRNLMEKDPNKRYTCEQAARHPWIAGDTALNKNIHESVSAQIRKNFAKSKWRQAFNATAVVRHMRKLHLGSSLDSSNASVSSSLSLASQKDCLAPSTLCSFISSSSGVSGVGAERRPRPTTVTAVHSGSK

[28] = target: Proto-oncogene tyrosine-protein kinase Src (Homo sapiens) (UniProt P12931); assay: Inhibition of c-SRC up to 10 uM
Sequence of Proto-oncogene tyrosine-protein kinase Src (Homo sapiens) (P12931 2-536 limits assumed): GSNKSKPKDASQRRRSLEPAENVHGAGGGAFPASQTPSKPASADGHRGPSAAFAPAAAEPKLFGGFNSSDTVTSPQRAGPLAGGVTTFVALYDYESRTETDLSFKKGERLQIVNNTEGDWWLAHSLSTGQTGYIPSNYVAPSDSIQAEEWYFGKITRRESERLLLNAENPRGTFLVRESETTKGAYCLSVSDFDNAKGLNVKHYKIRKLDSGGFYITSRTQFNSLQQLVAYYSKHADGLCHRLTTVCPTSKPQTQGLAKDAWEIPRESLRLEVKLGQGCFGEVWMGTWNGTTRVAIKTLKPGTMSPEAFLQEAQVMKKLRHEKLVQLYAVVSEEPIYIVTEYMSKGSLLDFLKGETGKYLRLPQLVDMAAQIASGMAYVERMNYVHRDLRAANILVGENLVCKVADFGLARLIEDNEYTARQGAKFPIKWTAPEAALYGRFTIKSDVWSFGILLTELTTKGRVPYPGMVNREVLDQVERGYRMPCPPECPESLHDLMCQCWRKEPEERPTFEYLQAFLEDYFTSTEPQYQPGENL

[29] = target: Protein kinase C alpha type (Homo sapiens) (UniProt P17252); assay: Inhibition of PKCalpha up to 10 uM
[30] = Volume of distribution at steady state in dog at 0.6 mg/kg, iv and 2.3 mg/kg, po; type: ADME, organism-based, Canis lupus familiaris; conditions: in vivo, read-out: Vdss
[31] = target: Insulin receptor (Homo sapiens) (UniProt P06213); assay: Inhibition of IR up to 10 uM
[32] = target: Hepatocyte growth factor receptor (Homo sapiens) (UniProt P08581); assay: Inhibition of c-Met up to 10 uM
[33] = Oral bioavailability in rat at 4.2 mg/kg; type: ADME, organism-based; conditions: in vivo
[34] = Inhibition of CYP450 up to 30 uM; type: ADME
[35] = target: Tyrosine-protein kinase JAK3 (Homo sapiens) (UniProt P52333); assay: Inhibition of JAK3 up to 10 uM
[36] = target: RAF proto-oncogene serine/threonine-protein kinase (Homo sapiens) (UniProt P04049); assay: Inhibition of c-RAF up to 10 uM
Sequence of RAF proto-oncogene serine/threonine-protein kinase (Homo sapiens) (P04049 whole entry): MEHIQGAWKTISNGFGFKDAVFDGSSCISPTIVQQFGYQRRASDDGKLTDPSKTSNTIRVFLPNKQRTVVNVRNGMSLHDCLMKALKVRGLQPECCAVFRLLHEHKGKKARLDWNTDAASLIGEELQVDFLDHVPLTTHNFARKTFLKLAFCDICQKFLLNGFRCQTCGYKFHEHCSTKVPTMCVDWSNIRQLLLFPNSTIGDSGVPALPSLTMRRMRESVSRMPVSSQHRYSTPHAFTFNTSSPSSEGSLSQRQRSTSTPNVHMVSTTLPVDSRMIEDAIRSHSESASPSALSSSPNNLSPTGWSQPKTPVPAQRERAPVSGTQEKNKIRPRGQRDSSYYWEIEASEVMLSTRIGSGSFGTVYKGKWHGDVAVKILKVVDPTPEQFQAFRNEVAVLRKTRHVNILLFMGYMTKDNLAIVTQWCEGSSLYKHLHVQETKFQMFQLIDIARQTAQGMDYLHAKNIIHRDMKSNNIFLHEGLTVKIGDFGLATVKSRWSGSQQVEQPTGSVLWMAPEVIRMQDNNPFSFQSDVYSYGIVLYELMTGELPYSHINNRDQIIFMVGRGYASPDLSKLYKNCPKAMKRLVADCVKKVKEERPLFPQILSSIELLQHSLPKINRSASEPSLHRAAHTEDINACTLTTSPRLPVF

[37] = Mean residence time in mouse at […], po; type: ADME, organism-based; parameters: dose 7.8 mg/kg, route oral; conditions: in vivo
[38] = target: Tyrosine-protein kinase ABL1 (Homo sapiens) (UniProt P00519); assay: Inhibition of Abl1 up to 10 uM
[39] = target: Platelet-derived growth factor receptor beta (Homo sapiens) (UniProt P09619); assay: Inhibition of PDGFRbeta up to 10 uM
Sequence of Platelet-derived growth factor receptor beta (Homo sapiens) (P09619 whole entry): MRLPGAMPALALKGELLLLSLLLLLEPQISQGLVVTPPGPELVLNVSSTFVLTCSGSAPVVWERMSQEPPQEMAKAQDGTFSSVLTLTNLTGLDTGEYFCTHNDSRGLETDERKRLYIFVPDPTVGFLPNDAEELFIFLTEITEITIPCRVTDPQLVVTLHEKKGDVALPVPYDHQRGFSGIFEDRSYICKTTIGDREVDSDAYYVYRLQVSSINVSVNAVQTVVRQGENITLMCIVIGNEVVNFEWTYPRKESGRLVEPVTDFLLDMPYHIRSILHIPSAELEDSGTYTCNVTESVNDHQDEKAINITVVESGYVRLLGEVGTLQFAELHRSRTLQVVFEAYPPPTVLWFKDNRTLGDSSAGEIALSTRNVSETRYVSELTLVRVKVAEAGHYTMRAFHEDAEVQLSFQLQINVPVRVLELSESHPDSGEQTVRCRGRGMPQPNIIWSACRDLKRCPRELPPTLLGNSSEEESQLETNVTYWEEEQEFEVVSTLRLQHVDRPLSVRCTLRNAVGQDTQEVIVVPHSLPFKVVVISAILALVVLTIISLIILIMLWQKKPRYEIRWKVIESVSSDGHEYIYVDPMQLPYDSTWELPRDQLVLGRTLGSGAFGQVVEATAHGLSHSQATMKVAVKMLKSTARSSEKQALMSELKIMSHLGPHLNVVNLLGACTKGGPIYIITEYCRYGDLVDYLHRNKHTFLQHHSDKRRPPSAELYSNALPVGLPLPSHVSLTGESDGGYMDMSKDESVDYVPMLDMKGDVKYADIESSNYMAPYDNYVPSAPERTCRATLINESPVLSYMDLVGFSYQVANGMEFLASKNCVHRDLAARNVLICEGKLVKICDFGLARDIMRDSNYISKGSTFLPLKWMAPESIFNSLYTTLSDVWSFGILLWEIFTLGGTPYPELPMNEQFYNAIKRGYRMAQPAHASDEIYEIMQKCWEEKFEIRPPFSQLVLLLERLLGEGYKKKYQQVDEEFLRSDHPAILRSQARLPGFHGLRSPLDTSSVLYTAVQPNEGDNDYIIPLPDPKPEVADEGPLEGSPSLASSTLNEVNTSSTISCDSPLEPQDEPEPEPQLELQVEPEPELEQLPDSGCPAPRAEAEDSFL

[40] = Mean residence time in mouse at 1.4 mg/kg, iv; type: ADME, organism-based; parameters: dose 1.4 mg/kg, route intravenous; conditions: in vivo
[41] = Mean residence time in rat at 4.2 mg/kg, po; type: ADME, organism-based; parameters: dose 4.2 mg/kg, route oral; conditions: in vivo
[42] = target: Epidermal growth factor receptor (Homo sapiens) (UniProt P00533); assay: Inhibition of EGFR up to 10 uM
[43] = target: Serine/threonine-protein kinase PLK3 (Homo sapiens) (UniProt Q9H4B4); assay: Inhibition of PLK3 up to 10 uM
[44] = Mean residence time in monkey at 0.5 mg/kg, iv; type: ADME, organism-based, Macaca mulatta; parameters: dose 0.5 mg/kg, route intravenous; conditions: rhesus monkey, in vivo
[45] = target: Mitogen-activated protein kinase 14 (Homo sapiens) (UniProt Q16539); assay: Inhibition of p38alpha up to 10 uM
Sequence of Mitogen-activated protein kinase 14 (Homo sapiens) (Q16539 whole entry): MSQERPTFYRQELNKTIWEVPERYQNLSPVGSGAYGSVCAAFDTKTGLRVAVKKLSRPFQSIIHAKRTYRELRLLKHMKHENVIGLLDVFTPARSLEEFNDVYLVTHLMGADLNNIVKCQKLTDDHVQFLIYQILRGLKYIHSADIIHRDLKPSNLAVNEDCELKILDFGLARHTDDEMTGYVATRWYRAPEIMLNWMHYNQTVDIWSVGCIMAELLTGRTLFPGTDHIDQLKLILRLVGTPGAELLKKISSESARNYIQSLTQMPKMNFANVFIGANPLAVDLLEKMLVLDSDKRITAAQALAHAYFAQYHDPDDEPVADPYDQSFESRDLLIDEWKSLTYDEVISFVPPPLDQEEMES

[46] = Clearance in monkey at 0.5 mg/kg, iv and 2 mg/kg, po; type: ADME, organism-based, Macaca mulatta; conditions: rhesus monkey, in vivo

Cn1c(=O)c(F)c(Nc2ccc(I)cc2F)c2c(=O)n(C[C@H](O)CO)cnc21
EC50 [1]: 3 nM
EC50 [2]: 2.6 nM
IC50 [3]: 3.2 nM
half-life [4]: 183 min
half-life [5]: 91 min

Cn1c(=O)cc(Nc2ccc(I)cc2F)c2c(=O)n(CCCO)cnc21
EC50 [1]: 23 nM
EC50 [2]: 16 nM
IC50 [3]: 4.9 nM
half-life [4]: > 200 min
half-life [5]: 20 min

Cc1c(Nc2ccc(I)cc2F)c2c(=O)n(CCO)cnc2n(C)c1=O
EC50 [1]: 18 nM
EC50 [2]: 9 nM
IC50 [3]: 4 nM
half-life [4]: > 200 min
half-life [5]: > 200 min

Cn1c(=O)cc(Nc2ccc(I)cc2F)c2c(=O)n(C[C@@H](O)CCO)cnc21
EC50 [1]: 479 nM
EC50 [2]: 142 nM
half-life [4]: > 200 min
half-life [5]: 40 min

CN(C)CCn1cnc2c(c(Nc3ccc(I)cc3F)cc(=O)n2C)c1=O
IC50 [3]: 740 nM
half-life [4]: 29 min
half-life [5]: 8 min

Cn1c(=O)c(Cl)c(Nc2ccc(I)cc2F)c2c(=O)n(C[C@@H](O)CO)cnc21
EC50 [1]: 25 nM
EC50 [2]: 10 nM
IC50 [3]: 5.9 nM
half-life [4]: 22 min
half-life [5]: > 200 min

Cn1c(=O)c(F)c(Nc2ccc(I)cc2F)c2c(=O)n(C(CO)CO)cnc21
EC50 [1]: 8 nM
EC50 [2]: 3.5 nM
IC50 [3]: 3.3 nM
half-life [4]: 31 min
half-life [5]: 48 min

Cn1c(=O)cc(Nc2ccc(I)cc2F)c2c(=O)n(C[C@H](O)CO)cnc21
EC50 [1]: 40 nM
EC50 [2]: 38 nM
half-life [4]: > 200 min
half-life [5]: > 200 min

Cn1c(=O)c(F)c(Nc2ccc(I)cc2F)c2c(=O)n(OC[C@H](O)CO)cnc21
EC50 [1]: 3 nM
EC50 [2]: 1 nM
IC50 [3]: 3.1 nM
half-life [4]: 35 min
half-life [5]: 28 min

Cn1c(=O)c(F)c(Nc2ccc(Br)cc2F)c2c(=O)n(C[C@@H](O)CO)cnc21
EC50 [1]: 50 nM
EC50 [2]: 38 nM
half-life [4]: 188 min
half-life [5]: 49 min

Cn1c(=O)cc(Nc2ccc(I)cc2F)c2c(=O)n(CCO)cnc21
EC50 [1]: 60 nM
EC50 [2]: 38 nM
half-life [4]: 37 min
half-life [5]: 11 min

Cn1c(=O)cc(Nc2ccc(I)cc2F)c2c(=O)n(C[C@@H](O)CO)cnc21
EC50 [1]: 26 nM
EC50 [2]: 27 nM
half-life [4]: 48 min
half-life [5]: 25 min

Cc1c(Nc2ccc(I)cc2F)c2c(=O)n(C[C@@H](O)CO)cnc2n(C)c1=O
EC50 [1]: 7.4 nM
EC50 [2]: 7.9 nM
half-life [4]: 117 min
half-life [5]: 118 min

C#Cc1ccc(Nc2c(F)c(=O)n(C)c3ncn(C[C@@H](O)CO)c(=O)c23)c(F)c1
EC50 [1]: 11 nM
EC50 [2]: 10 nM
IC50 [3]: 4.8 nM
half-life [4]: 49 min
half-life [5]: 33 min

Cn1c(=O)c(F)c(Nc2ccc(I)cc2F)c2c(=O)n(C[C@@H](O)CO)cnc21 [TAK-733]
EC50 [1]: 3.1 nM
clearance [6]: 5.9 mL/min/kg
EC50 [2]: 2.1 nM
IC50 [3]: 3.2 nM
bioavailability [7]: > 38%
Vd [8]: 1.64 L/kg
MRT [9]: 2 h
inhibition [10]: inactive
bioavailability [11]: 67%
inhibition [12]: inactive
inhibition [13]: inactive
inhibition [14]: inactive
clearance [15]: 13.7 mL/min/kg
half-life [4]: 143 min
bioavailability [16]: 76%
MRT [17]: 23.8 h
clearance [18]: 17.2 mL/min/kg
inhibition [19]: inactive
Vd [20]: 1.96 L/kg
fraction unbound [21]: 0.03
Vd [22]: 3.75 L/kg
MRT [23]: 12.9 h
inhibition [24]: inactive
MRT [25]: 8.9 h
fraction unbound [26]: 0.04
inhibition [27]: inactive
inhibition [28]: inactive
inhibition [29]: inactive
Vd [30]: 3.07 L/kg
half-life [5]: 135 min
inhibition [31]: inactive
inhibition [32]: inactive
bioavailability [33]: 71%
inhibition (INH) [34]: Not Active
inhibition [35]: inactive
inhibition [36]: inactive
MRT [37]: 4.6 h
inhibition [38]: inactive
inhibition [39]: inactive
MRT [40]: 1.9 h
MRT [41]: 11.5 h
inhibition [42]: inactive
inhibition [43]: inactive
MRT [44]: 5.8 h
inhibition [45]: inactive
clearance [46]: 11.1 mL/min/kg

Cn1c(=O)c(F)c(Nc2ccc(I)cc2F)c2c(=O)n(CCO)cnc21
EC50 [1]: 6.3 nM
EC50 [2]: 3.7 nM
half-life [4]: 51 min
half-life [5]: 29 min

Cc1c(Nc2ccc(I)cc2F)c2c(=O)n(C[C@H](O)CO)cnc2n(C)c1=O
EC50 [1]: 8 nM
EC50 [2]: 13 nM
half-life [4]: > 200 min
half-life [5]: > 200 min

Cn1cnc2c(c(Nc3ccc(I)cc3F)cc(=O)n2C)c1=O
EC50 [1]: 86 nM
EC50 [2]: 49 nM
half-life [4]: > 200 min
half-life [5]: 13 min
